Results as given in US20250041387A1, “POLYPEPTIDE SEQUENCE OF KDM6B AND APPLICATION OF KDM6B IN REGULATING AND CONTROLLING FUNCTION OF MESENCHYMAL STEM CELL” (BEIJING STOMATOLOGICAL HOSPITAL, CAPITAL MEDICAL UNIVERSITY, priority 2021, published 2025).
Several values for one entry are separate records, joined by “and”; a condition that tells them apart may be missing. Equal values may be shown once.

How the values were obtained:
[1] = system: minipig periodontitis model with bone defect; assay: Minipig periodontitis model, clinical indicators (PD, AL, GR) and intraoral observation; format: in vivo, Wuzhishan minipigs; parameters: attachment loss (AL) / gingival recession (GR): unit not given here; details: for attachment loss (AL) / gingival recession (GR) / probing depth (PD): individual sides
Text: Method: An experimental minipig periodontitis model was established by creating bone defect and ligating silk threads. Specifically, minipigs were conventionally anaesthetized, and extraorally disinfected. The mandibular first permanent molar of the minipig was selected as the experimental tooth, which was subjected to intra-sulcal incision and vertical incision. The mucoperiosteal flap was opened, the mesia-buccal root of the mandibular first permanent molar of the minipig was exposed by bone removal, and a bone defect with a size of 3 mm×5 mm×7 mm was created. That is, 3 mm×5 mm×7 mm of the mesial proximal alveolar bone was removed, and the mesiobuccal root buccal bone plate and distal alveolar bone (3 mm×5 mm, the gingival depth was level with the mesial proximal surface) were removed. The suture in situ was performed. The experimental tooth neck was ligated with silk threads. […] The successful establishment of periodontal bone defect model was verified by CT imaging and clinical examination.
12 Wuzhishan minipigs were used to establish periodontitis model, with a total of 24 sides, which were randomly divided into 3 groups. Each side was injected with a drug at an amount of 60 μl. Group 1: flap surgery with scraping+injection of sterile saline after modeling (untreated control group); group 2: flap surgery with scraping+injection of control polypeptide after modeling (control group); group 3: flap surgery with scraping+injection of bioactive polypeptide 114 after modeling (experimental group).
Drug injection treatment was performed 4 weeks after the modeling operation. The effect of bioactive polypeptide 114 on the regeneration and repair capacity of defected tissues mediated by stem cells in minipigs of periodontitis was assessed by comparing the clinical indicators and imaging examination after modeling (−4 w), 4 weeks after modeling without drug injection (0 w) and 3 months after drug treatment (12 w).
Clinical indicators (PD, AL and GR) detection and CT imaging were performed before the experiment, after modeling (−4 w) and 3 months after treatment (12 w).
Periodontal probing depth (PD): The depth of the periodontal pocket on the mesiobuccal side of the tooth was recorded at a probing pressure of 20-25 g.
Gingival recession (GR): The distance from the cemento-enamel junction to the gingival margin was measured using a periodontal probe. If there was gingival recession, the cementoenamel junction was exposed, and the gingival margin was located at the root of the cementoenamel junction, then the distance between the two was recorded as a positive value; if there was no gingival recession, the gingival margin was located at the crown of the cementoenamel junction, then the distance between the two was recorded as a negative value.
Attachment loss (AL): The degree of attachment loss was determined by subtracting GR from the periodontal pocket depth. If the two numbers were subtracted to zero, or the cementoenamel junction cannot be detected, it means there was no attachment loss. If the gingival recession caused the gingival margin to locate at the root of the cementoenamel junction, the two numbers were added to obtain the degree of the attachment loss. • 2.1 Probing depth (PD) was shown in Table 17 and FIG. 10.

[2] = system: OVX mouse of osteoporosis model; assay: OVX mouse osteoporosis model, micro-CT of distal femur; format: in vivo, C57BL/6 mice; details: OVX mice, 10 mg/kg intraperitoneally for 3 months from 6 weeks after ovary removal, individual mice, FIG. 19B, listed as 114 peptide
Text: Twenty five 3-month-old C57BL/6 mice were purchased from Vital River and randomly divided into sham operation group, OVX group, PBS group, control peptide group and 114 peptide group, with five mice in each group. The osteoporosis model was established by removing bilateral ovaries in OVX, PBS, control peptide and 114 peptide groups. In the sham operation group, ovaries were not removed. 6 weeks after ovary removal, the mice were intraperitoneally injected with control peptide and peptide 114 at 10 mg/kg for continuous 3 months, and then sacrificed. For the distal femur, the left distal femur of each mouse was scanned ex vivo using a micro-CT system. Each segment of bone trabeculae was selected for segmentation, and subjected to 3D reconstruction. BMD was calculated.

[3] = 0 w, 4 weeks after modeling without drug injection, listed as 114 peptide
[4] = 12 w after injection, listed as 114 peptide

FITC-(Acp)-ADLTISHCAADVVRAYGRKKRRQRRR [peptide 114]
attachment loss (AL) [1, 3]: 9.5 (3×) and 9 and 12 (2×) | gingival recession (GR) [1, 3]: 2.5 (3×) and 1 (2×) and 0.5 and 3 and 4.5 | probing depth (PD) [1, 3]: 7.5 (3×) and 8.5 and 7 and 8 and 9 (2×) | attachment loss (AL) [1, 4]: significantly lower and 3 and 2.5 and 1.5 and 4 | gingival recession (GR) [1, 4]: significantly lower and 0.5 and 1 | probing depth (PD) [1, 4]: significantly lower and 2.5 and 2 and 0.5 and 1 and 3 | mesenchymal stem cells-mediated regeneration of periodontal tissue ([1]; CT imaging, bone volume analysis and clinical examination): promoted | restoration effect of soft tissues (intraoral images) ([1]; week 12 after injection, FIG. 14): better | probing depth (PD) ([1]; −4 w, before drug injection, FIG. 10, listed as 114 peptide): 1 (7×) and 2 | gingival recession (GR) ([1]; −4 w, before drug injection, FIG. 12): 0 | bone density (BMD) of femoral bone trabeculae [2]: significant up-regulation and 0.1440 and 0.1242 and 0.1416 and 0.1071 and 0.1137
